Eleven compounds from patent US4675390A, “2-deoxypentose derivatives” (Eli Lilly and Company, priority 1984, dated 1987) can be followed below.

Structures are written as SMILES. ≈ marks a conversion by molar mass, not a printed value. Where only a bound is given, the exact number is not on record here.

For one data set, the system named is CCRF-CEM cell line. Nature of the data set: growth inhibition of human leukemic cells. The settings on record: read-out: IC50 (concentration giving 50% growth inhibition). It counts as cell-based.
In data set [1] the test system is X-5563, a plasma cell myeloma. Kind of data set: antitumor activity against transplanted X-5563 plasma cell myeloma in mice. It is filed as in vivo. The settings on record: daily for 10 days with 3 day delay. The text has this:
Compounds according to formula II above are also active against transplanted tumors in mice. Table II which follows gives the results of testing α-methyl 2-deoxy-3-phosphocholyl-5-n-hexadecyl-D-ribofuranoside against X-5563, a plasma cell myeloma. In the table, column 1 gives the dosage levels, column 2 toxic deaths, column 3, the percent tumor growth inhibition and column 4, the dosage schedule or regimen. Ten mice were given each dosage ip and a group of 20 mice used as controls.

The subject of data set [2] is spontaneously hypertensive rats (SHR). Nature of the data set: blood pressure lowering in spontaneously hypertensive rats (tailcuff method). The following applies: 5 mg/kg subcutaneous, 3-5 hours. It counts as in vivo. The source says:
Certain of the compounds of this invention are also active in lowering the blood pressure of spontaneously hypertensive rats (SHR). For example, β-methyl 2-deoxy-3-phosphocholyl-5-n-hexadecyl-D-ribofuranoside, when administered subcutaneously to SHR at various dose levels, produced the hypotensive effects set forth in Table III below.
*measured by tailcuff method

Regarding `CCCCCCCCCCCCCCCCOC[C@H]1OCC[C@@H]1OP(=O)([O-])OCC[N+](C)(C)C` [drawing 19 (R = H, R^1 = H), 1,2-dideoxy-3-phosphocholyl-5-n-hexadecyl-D-ribofuranose], the IC50 in the data set with CCRF-CEM cell line was determined as 3.7 µg/mL (≈ 7.29 µM).

Take `CCCCCCCCCCCCCCCCO[C@H]1CCO[C@@H]1COP(=O)([O-])OCC[N+](C)(C)C` [drawing 20 (R = H, R^1 = H), 1,2-Dideoxy-3-n-hexadecyl-5-phosphocholyl-D-ribofuranose]: in the data set with CCRF-CEM cell line, the IC50 was 3.4 µg/mL (≈ 6.7 µM).

On to `CCCCCCCCCCCCCCCCOC[C@H]1O[C@H](OC)C[C@@H]1OP(=O)([O-])OCC[N+](C)(C)C` [drawing 19 (R = MeO, R^1 = H), α-methyl 2-deoxy-3-phosphocholyl-5-n-hexadecyl-D-ribofuranoside], for which the IC50 in the data set with CCRF-CEM cell line turned out to be 2.3 µg/mL (≈ 4.28 µM). Besides, in data set [1] (25 mg/kg ip), the “Percent inhibition of Tumor growth” value came to 37% and the Toxic deaths was 0/10. Besides, in data set [1] (50 mg/kg ip), the “Percent inhibition of Tumor growth” value came out at 61% and the Toxic deaths is given as 2/10.

`CCCCCCCCCCCCCCCCO[C@H]1CC(O)O[C@@H]1COP(=O)([O-])OCC[N+](C)(C)C` (stereo partly drawn) [drawing 20 (R = H(OH), R^1 = OH(H)), 2-Deoxy-3-n-hexadecyl-5-phosphocholyl-D-ribose]: the IC50 with CCRF-CEM cell line amounted to 13.2 µg/mL (≈ 25.2 µM).

Regarding `CCCCCCCCCCCCCCCCOC[C@H]1O[C@@H](OC)C[C@@H]1OP(=O)([O-])OCC[N+](C)(C)C` [drawing 19 (R = H, R^1 = MeO), β-methyl 2-deoxy-3-phosphocholyl-5-n-hexadecyl-D-ribofuranoside], the IC50 in the data set on CCRF-CEM cell line turned out to be 6.2 µg/mL (≈ 11.5 µM). Further, the “Heart Rate” value in data set [2] is “No effect”. The compound also showed a Blood pressure effect in data set [2] (tailcuff method) of -20 mmHg.

With `CCCCCCCCCCCCCCCCOC[C@H]1OC(O)C[C@@H]1OP(=O)([O-])OCC[N+](C)(C)C` (stereo partly drawn) [drawing 19 (R = H(OH), R^1 = OH(H)), 2-deoxy-3-phosphocholyl-5-n-hexadecyl-D-ribose], the IC50 in the data set on CCRF-CEM cell line was determined as 6.4 µg/mL (≈ 12.2 µM).

For the compound `CCCCCCCCCCCCCCCCOC[C@H]1OCC[C@H]1OP(=O)([O-])OCC[N+](C)(C)C` [drawing 21 (R = H, R^1 = H), 1,2-dideoxy-3-phosphocholyl-5-n-hexadecyl-D-xylofuranose], the IC50 in the data set on CCRF-CEM cell line came out at 6.2 µg/mL (≈ 12.2 µM).

Consider `CCCCCCCCCCCCCCCCO[C@H]1C[C@@H](OC)O[C@@H]1COP(=O)([O-])OCC[N+](C)(C)C` [drawing 20 (R = MeO, R^1 = H), Methyl 2-deoxy-3-n-hexadecyl-5-phosphocholyl-D-ribofuranoside], for which the IC50 with CCRF-CEM cell line was determined as 5.2 µg/mL (≈ 9.67 µM).

`CCCCCCCCCCCCCCCCO[C@H]1C[C@H](OC)O[C@@H]1COP(=O)([O-])OCC[N+](C)(C)C` [drawing 20 (R = H, R^1 = MeO), β-Methyl 2-deoxy-3-n-hexadecyl-5-phosphocholyl-D-ribofuranoside]: the IC50 with CCRF-CEM cell line was less than 2.1 µg/mL.

For `CCCCCCCCCCCCCCCCOC[C@H]1O[C@H](OC)C[C@H]1OP(=O)([O-])OCC[N+](C)(C)C` [drawing 21 (R = MeO, R^1 = H), α-Methyl 2-deoxy-3-phosphocholyl-5-n-hexadecyl-D-xylofuranoside], the IC50 in the data set on CCRF-CEM cell line worked out at 5.3 µg/mL (≈ 9.86 µM).

`CCCCCCCCCCCCCCCCO[C@H]1CC(=O)O[C@@H]1COP(=O)([O-])OCC[N+](C)(C)C` [drawing 20 (R, R^1 = Carbonyl), 2-deoxy-3-n-hexadecyl-5-phosphocholyl-D-ribofuran-1-one]: in the data set on CCRF-CEM cell line, the IC50 is 6.2 µg/mL (≈ 11.9 µM).
